Experimental data taken from patent US10494363B2, “Non-steroidal glucocorticoid receptor modulators for local drug delivery” (LEO PHARMA A/S, priority 2015, dated 2019).

Legend:
[1] = biological target: T1, glucocorticoid receptor (GR), recombinant full-length receptor protein (Homo sapiens, UniProt P04150); test: Glucocorticoid receptor binding assay (fluorescence polarization kit); conditions: 4 nM receptor, 2.5 nM Fluormone GS1 tracer, 2h room temperature, read-out: GR binding ABS IC50
T1 construct: 4 nM recombinant, full-length receptor protein was incubated with increasing concentrations of GR ligand; purchased Life Technologies A-15897
T1 sequence (P04150 1-777): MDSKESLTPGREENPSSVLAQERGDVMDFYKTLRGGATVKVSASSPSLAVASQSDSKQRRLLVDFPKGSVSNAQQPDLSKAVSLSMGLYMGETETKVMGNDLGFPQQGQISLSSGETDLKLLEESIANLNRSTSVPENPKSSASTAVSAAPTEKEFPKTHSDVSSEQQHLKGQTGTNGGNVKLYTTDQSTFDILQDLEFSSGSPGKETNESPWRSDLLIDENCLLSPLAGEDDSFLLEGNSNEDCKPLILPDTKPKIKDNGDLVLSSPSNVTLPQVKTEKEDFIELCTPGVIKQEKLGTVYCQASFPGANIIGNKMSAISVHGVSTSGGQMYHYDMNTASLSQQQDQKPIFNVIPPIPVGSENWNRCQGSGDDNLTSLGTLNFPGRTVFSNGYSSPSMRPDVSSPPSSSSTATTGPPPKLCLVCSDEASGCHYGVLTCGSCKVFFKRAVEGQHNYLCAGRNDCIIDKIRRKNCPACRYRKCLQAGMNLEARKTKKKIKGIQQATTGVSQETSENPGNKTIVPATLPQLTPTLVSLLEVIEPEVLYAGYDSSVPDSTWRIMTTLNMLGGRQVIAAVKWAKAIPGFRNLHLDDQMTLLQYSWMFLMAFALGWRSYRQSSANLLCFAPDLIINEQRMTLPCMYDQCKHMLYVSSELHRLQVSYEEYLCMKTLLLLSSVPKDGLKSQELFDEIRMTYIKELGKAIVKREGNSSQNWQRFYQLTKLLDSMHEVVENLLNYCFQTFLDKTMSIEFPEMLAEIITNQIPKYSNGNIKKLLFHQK
Procedure: Test compounds were diluted in DMSO over seven orders of magnitude, further diluted in assay buffer and distributed into 384-well plates. The sensitivity limit of this assay was 2-4 nM.
Data were processed by sigmoidal curve fitting.
Absolute (Abs) IC50 and Emax were determined from the curve fits.

[2] = system: TNF alpha release from human PBMCs; test: Inhibition of TNF alpha release from human PBMCs; format: cell-based; conditions: PBMC, LPS 1 μg/ml, 18 hours, AlphaLISA
Summary of the method: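 Fresh or thawed PBMCs in serum-free medium with 0.5% HSA, stimulated with 1 μg/ml LPS plus titrated compound for 18 h at 37° C. TNF-a in supernatant by AlphaLISA; window set with a reference PDE4 inhibitor at 100×IC50. EC50 and Emax from sigmoidal fits.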

[3] = Human liver microsomes (HLM) assay; format: in vitro ADME; conditions: hepatic extraction ratio; 0.5 μM compound, 0.5 mg/mL microsomes, NADPH, 37° C.
Summary of the method: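 Compound at 0.5 μM incubated at 37° C. with human liver microsomes (0.5 mg/mL) and NADPH (1 mM) in phosphate buffer pH 7.4, 1% organic solvent; sampled 0-30 minutes. Clapp (mL/min/kg) and Eh (%) derived from depletion rate constant.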

Row | IC50 [1] [nM] | HLM assay Eh (%) [3] | Structure (SMILES) | EC50 [2] [nM]
1 | < 100 | * (extraction ratio (Eh)>90%) | Cc1nnsc1C(=O)N[C@@H](C)[C@H](Oc1ccc(C(=O)O[C@H]2CCCN(C(=O)[C@H]3COC(=O)C3)C2)cc1)c1ccc(C2CC2)cc1 [Compound 32, [(3S)-1-[(3R)-5-oxotetrahydrofuran-3-carbonyl]-3-piperidyl] 4-[(1R,2S)-1-(4-cyclopropylphenyl)-2-[(4-methylthiadiazole-5-carbonyl)amino]propoxy]benzoate] | < 100
2 | < 100 | * (extraction ratio (Eh)>90%) | C[C@H](NC(=O)[C@H]1CCCO1)[C@H](Oc1ccc(C(=O)N[C@H]2CCCN(C(=O)[C@H]3COC(=O)C3)C2)nc1)c1ccc(C2CC2)cc1 [Compound 22, 5-[(1R,2S)-1-(4-cyclopropylphenyl)-2-[[(2R)-tetrahydrofuran-2-carbonyl]amino]propoxy]-N-[(3S)-1-[(3R)-5-oxotetrahydrofuran-3-carbonyl]-3-piperidyl]pyridine-2-carboxamide] | < 100
3 | < 100 | * (extraction ratio (Eh)>90%) | C[C@H](NC(=O)c1ccns1)[C@H](Oc1ccc(C(=O)O[C@H]2CCCN(C(=O)[C@H]3COC(=O)C3)C2)cc1)c1ccc(C2CC2)cc1 [Compound 47, [(3S)-1-[(3R)-5-oxotetrahydrofuran-3-carbonyl]-3-piperidyl] 4-[(1R,2S)-1-(4-cyclopropylphenyl)-2-(isothiazole-5-carbonylamino)propoxy]benzoate] | < 100
4 | < 100 | * (extraction ratio (Eh)>90%) | C[C@H](NC(=O)c1ncco1)[C@H](Oc1ccc(C(=O)O[C@H]2CCCN(C(=O)[C@H]3COC(=O)C3)C2)cc1)c1ccc(C2CC2)cc1 [Compound 49, [(3S)-1-[(3R)-5-oxotetrahydrofuran-3-carbonyl]-3-piperidyl] 4-[(1R,2S)-1-(4-cyclopropylphenyl)-2-(oxazole-2-carbonylamino)propoxy]benzoate] | < 100
